Measurements reported in patent US7989445B2, “Thienopyrimidone compound” (Takeda Pharmaceutical Company Limited, priority 2005, dated 2011).
Counter-ions that a name gives are not always drawn.

Experiments:
[1] = target: T1, SLC-1 expression CHO cell membrane fraction (MCH receptor) (Homo sapiens, UniProt Q99705); experiment: Antagonistic activity of test compound using GTPγS binding assay; type: biochemical, human/rat; conditions: [35S]-GTPγS binding stimulated by MCH, 25° C., 1 hr, read-out: inhibitory activity (IC50: nM)
T1 construct: expressed in transfected cells; host or cells: CHO cells (human SLC-1 clone 57 / rat SLC-1 clone 44), membrane fraction
T1 sequence (Q99705 whole entry): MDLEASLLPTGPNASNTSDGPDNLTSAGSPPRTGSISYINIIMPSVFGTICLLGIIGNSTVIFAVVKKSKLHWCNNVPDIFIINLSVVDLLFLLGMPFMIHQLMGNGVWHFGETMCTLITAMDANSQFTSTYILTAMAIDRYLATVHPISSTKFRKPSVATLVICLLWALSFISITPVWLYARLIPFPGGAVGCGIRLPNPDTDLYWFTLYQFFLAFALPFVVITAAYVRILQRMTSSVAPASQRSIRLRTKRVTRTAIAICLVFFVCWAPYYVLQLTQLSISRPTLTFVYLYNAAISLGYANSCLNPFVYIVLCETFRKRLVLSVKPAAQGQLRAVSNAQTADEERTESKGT
Experimental: Determination of Antagonistic Activity of Test Compound using GTPγS Binding Assay
Using human SLC-1 expression CHO cell clone 57 and rat SLC-1 expression CHO cell clone 44 described in WO01/82925, SLC-1 expression CHO cell membrane fractions were prepared by the following method. In phosphate buffered saline (pH 7.4) supplemented with 5 mM EDTA (ethylenediaminetetraacetic acid) were suspended human and rat SLC-1 expression CHO cells (1×10^8) and centrifuged. Homogenate buffer (10 ml, 10 mM NaHCO3, 5 mM EDTA, pH 7.5) was added to the pellets of the cells and, using Polytron Homogenizer, the mixture was homogenated. The supernatant obtained after centrifugation at 400×g for 15 min was further centrifuged at 100,000×g for 1 hr to give precipitate of the membrane fraction. The precipitate was suspended in 2 ml of an assay buffer [50 mM Tris-HCl (pH 7.5), 1 mM EDTA, 0.1% BSA (bovine serum albumin), 10 mM MgCl2, 100 mM NaCl, 1 μM GDP (guanosine 5′-diphosphate), 0.25 mM PMSF (phenylmethylsulfonyl fluoride), […] pepstatin, […] leupeptin, […] phosphoramidon] and centrifuged at 100,000×g for 1 hr. The membrane fraction recovered as precipitate was suspended again in 20 ml of an assay buffer, and after dispensing, preserved at −80° C. and used upon thawing each time when in use.
The antagonistic activity of the test compound was determined as follows. The SLC-1 expression CHO cell membrane fraction (171 μl) diluted with an assay buffer was dispensed to a polypropylene 96 well plate and 3×10^−10 M MCH (2 μl) diluted with DMSO solution, test compound solution (2 μl) diluted to various concentrations and [^35S]-Guanosine 5′-(γ-thio)triphosphate ([…] Daiichi Pure Chemicals Co., Ltd.) were respectively added (cell membrane final concentration: 20 μg/ml, [^35S]-Guanosine 5′-(γ-thio)triphosphate final concentration: 0.33 nM). The reaction mixture was reacted at 25° C. for 1 hr with stirring, suction filtered with a glass filter (GF-C) and washed 3 times with a wash solution (300 μl, 50 mM Tris-HCl buffer, pH 7.5). Liquid scintillator ([…]) was added to the glass filter and the residual radioactivity was determined by a liquid scintillation counter. Binding inhibition (%)=(radioactivity upon addition of test compound and MCH−radioactivity upon addition of DMSO solution)/(radioactivity upon addition of MCH−radioactivity upon addition of DMSO solution)×100
From the binding inhibition (%), IC50 of the test compound was calculated.

SMILES | melting point [°C] | IC50 [1] [nM]
CN(CC(N)=O)Cc1ccc(CCn2cnc3cc(-c4ccc(Cl)cc4)sc3c2=O)cc1 [Example 32, N^2-(4-{2-[6-(4-chlorophenyl)-4-oxothieno[3,2-d]pyrimidin-3(4H) -yl]ethyl}benzyl)-N^2-methylglycinamide] | 207 to 212 | 5
CC(=O)N(C)N(C)c1ccc(CCn2cnc3cc(-c4ccc(Cl)cc4)sc3c2=O)cc1 [Example 22, N′-[4-[2-[6-(4-chlorophenyl)-4-oxothieno[3,2-d]pyrimidin-3(4H)-yl]ethyl]phenyl]-N,N′-dimethylacetohydrazide] | – | 10
CC(c1ccc(CCn2cnc3cc(-c4ccc(Cl)cc4)sc3c2=O)cc1)N1CCCCC1 (stereo not drawn) [Example 2, 6-(4-chlorophenyl)-3-{2-[4-(1-piperidin-1-ylethyl)phenyl]ethyl}thieno[3,2-d]pyrimidin-4(3H)-one] | 175 to 179 | 0.4
CC(=O)N(C)Cc1ccc(CCn2cnc3cc(-c4ccc(Cl)cc4)sc3c2=O)cc1 [Example 6, N-(4-{2-[6-(4-chlorophenyl)-4-oxothieno[3,2-d]pyrimidin-3(4H) -yl]ethyl}benzyl)-N-methylacetamide] | 176 to 178 | 4.8
O=c1c2sc(-c3ccc(Cl)cc3)cc2ncn1CCc1ccc(CN2CC[C@H](F)C2)cc1 [Example 18, 6-(4-chlorophenyl)-3-[2-(4-{[(3S)-3-fluoropyrrolidin-1-yl]methyl}phenyl)ethyl]thieno[3,2-d]pyrimidin-4(3H)-one] | – | 1.2
O=C1CCCN1Cc1ccc(CCn2cnc3cc(-c4ccc(Cl)cc4)sc3c2=O)cc1 [Example 11, 6-(4-chlorophenyl)-3-(2-{4-[(2-oxopyrrolidin-1-yl)methyl]phenyl}ethyl)thieno[3,2-d]pyrimidin-4(3H)-one] | 218 to 221 | 3.2
CN(C)C(=S)N(C)Cc1ccc(CCn2cnc3cc(-c4ccc(Cl)cc4)sc3c2=O)cc1 [Example 9, N-(4-{2-[6-(4-chlorophenyl)-4-oxothieno[3,2-d]pyrimidin-3(4H) -yl]ethyl}benzyl)-N,N′,N′-trimethylthiourea] | 156 to 158 | 4.7
CNCc1ccc(CCn2cnc3cc(-c4ccc(Cl)cc4)sc3c2=O)cc1 [Example 4, 6-(4-chlorophenyl)-3-(2-{4-[(methylamino)methyl]phenyl}ethyl)thieno[3,2-d]pyrimidin-4(3H)-one dihydrochloride] | – | 0.4
O=c1c2sc(-c3ccc(Cl)cc3)cc2ncn1CCc1ccc(CN2CCCC2)cc1 [Example 1, 6-(4-chlorophenyl)-3-{2-[4-(pyrrolidin-1-ylmethyl)phenyl]ethyl}thieno[3,2-d]pyrimidin-4(3H)-one] | 163 to 166 | 0.3
